Key:
[1] = system: MYCN gene; test: QT-PCR, MYCN mRNA in H69 cells; assay type: cell-based, human; settings: Table 6
Protocol: For the purpose of assessing the ability of the oligonucleotides of the present invention to modulate the expression of the target genes, their ability to reduce the quantity of messenger RNA was analyzed using the Real-Time PCR technique.
For this purpose, use was made of 24-well plates, which were seeded with 5.0×10^4 cells with 0.3 ml of OPTI-MEM (GIBCO BRL) medium, 4% FBS and 2 mM L-glutammine (experiments in triplicate) per well.
The cells were incubated for 24 hours at 37° C., in an atmosphere containing 5% CO2 to permit adherence to the base of the wells.
For each well, the oligonucleotides were analyzed at the following final concentrations: • the antisense oligonucleotides siRNA and siRNA gapmer (i.e. the oligonucleotides containing one or more monomers of chemically modified nucleic acids at the 3′ or 5′ end, while in the central portion they have monomers of nucleic acids that have not been modified or have been modified at the level of the phosphodiester bond as a phosphorothioate bond) were used at 200 nM; • the antisense oligonucleotides containing phosphorothioate DNA monomers, the RNA antigene oligonucleotides (agRNA) and the oligonucleotides containing DNA monomers and LNA monomers were used at 10 μM; • the morpholino oligonucleotides were used at a concentration of 1 μM, and • the PNA oligonucleotides were administered at a concentration of 1 μM.
The cells were treated with the oligonucleotides, adding FBS up to 4% 6 hours after administration of the same. After 24 hours the total RNA was extracted from each well and purified using the RNeasy Mini Kit (QIAGEN).
Assays were performed on 8 cell lines obtained from 5 different human tumours which are correlated with MYCN expression, i.e.: • as a neuroblastoma model use was made of the cell lines Kelly, IMR-32 (where the MYCN gene is amplified and superexpressed) and SKNBE2c and LAN1 (where the MYCN gene is amplified and superexpressed and the p53 gene is mutated); • as a rabdomiosarcoma model use was made of the cell line RH30, where the MYCN gene is amplified and superexpressed; • as a Wilms' tumour model use was made of the cell line WiT49, where the MYCN gene is amplified and superexpressed; • as a retinoblastoma model use was made of the cell line Y79, where the MYCN gene is amplified and superexpressed; and • as a model of small cell lung cancer use was made of the cell line H69 where the MYCN gene is amplified and superexpressed.
As a control, use was made of the same cell lines as listed above treated with sterile water instead of oligonucleotides. Each RNA sample was quantified (in duplicate) using a NanoDrop ND-1000 spectrophotometer (NanoDrop Technologies). The first strand of cDNA was produced using the cDNA Synthesis Kit for RT-PCR (Roche). For the cDNA synthesis reaction a total of 1 μg of RNA was used. For the real-time PCR, 10 ng of cDNA in a final volume of 20 μl was used with SYBR Green Master Mix 2× (Applied Biosystems) (3 identical experiments were conducted in triplicate). Two housekeeping genes were used as positive controls: GAPDH and beta-actin (ACTB).
The conditions of the QT-PCR reaction were: 10 min at 95° C., 20 sec at 95° C., and 30 sec at 60° C., for 50 cycles.
(§1) The PNAs having SEQ ID NO: 1-12 were also tested on different cell lines which overexpress MYCN (Kelly, SKNBE2c, RH30, WiT49, WERI-Rb1 1 and H69). The results are shown in Table 6 and confirm the selectivity and specificity of the inhibition effect of the PNAs on the product of protein translation of the MYCN gene.
The oligonucleotides were tested in vitro (at a concentration of 2.5 μM) to determine their ability to inhibit the transcription of the gene they are directed against by measuring the levels of the gene messenger in cellular models in which the gene of interest is overexpressed. The methods used are the ones described in example 1. […]

[2] = system: H69; test: Cellular proliferation assay (ATP-Lite), H69 cells; assay type: cell-based, human; settings: Table 6
Protocol: For the purpose of assessing the gene modulation ability of the oligonucleotides of the present invention, the effect of their administration on cell viability was determined.
For this purpose 5×10^3 cells per well were seeded into 96-well cell culture plates (experiments conducted in triplicate) with 100 μl of OPTI-MEM (GIBCO BRL) medium containing 4% FBS and 2 mM of L-glutammine.
The PNA oligonucleotides were administered at different concentrations (1 μM-2.5 μM-5 μM-10 μM) in order to observe a dose-effect relationship.
The viability of the treated cells was determined at 48, 72, 96 and 168 hours after treatment.
Cell viability was assessed by means of an ATP-Lite assay (Luminescence ATP Detection Assay System, PerkinElmer) and is reported as the ratio between the average signal of the treated wells compared to the average value of the wells of untreated control cells. The cells were processed following the instructions provided with the kit.
The assays were performed on the same cell lines used to determine the levels of the MYCN gene messenger and listed in the paragraph: Treatments with Oligonucleotides—QT-PCR.
as §1
The ability of the tested oligonucleotides to inhibit the messenger of the gene of interest was measured and the proliferative capacity of the cells following administration of the oligonucleotides was also assessed.

SEQ ID NO: 1: PNA ATGCCGGGCATGATCT against MYCN; subject of patent EP 1618195, control sequence used for comparison (all peptide nucleic acid (PNA)) [reference compound]
H69 % mRNA [1]: 40% | H69 % cell prol. [2]: 77%

SEQ ID NO: 2: PNA antigene oligonucleotide GGGTGGATGCGGGGGG directed against MYCN (PNA backbone, chemistry not fully specified)
H69 % mRNA [1]: 58% | H69 % cell prol. [2]: 61%

SEQ ID NO: 3: PNA antigene oligonucleotide GATGCGGGGGGCTCCT directed against MYCN (PNA backbone, chemistry not fully specified)
H69 % mRNA [1]: 55% | H69 % cell prol. [2]: 63%

SEQ ID NO: 4: PNA antigene oligonucleotide GTCGGCGGGAGGTAAG directed against MYCN (PNA backbone, chemistry not fully specified)
H69 % mRNA [1]: 55% | H69 % cell prol. [2]: 66%

SEQ ID NO: 5: PNA antigene oligonucleotide GCTGGGTGGATGCGGG directed against MYCN (PNA backbone, chemistry not fully specified)
H69 % mRNA [1]: 54% | H69 % cell prol. [2]: 68%

SEQ ID NO: 6: PNA antigene oligonucleotide TGGACGCGCTGGGTGG directed against MYCN (PNA backbone, chemistry not fully specified)
H69 % mRNA [1]: 55% | H69 % cell prol. [2]: 69%

SEQ ID NO: 7: PNA antigene oligonucleotide CGCGCTGGGTGGATGC directed against MYCN (all peptide nucleic acid (PNA))
H69 % mRNA [1]: 55% | H69 % cell prol. [2]: 67%

SEQ ID NO: 8: PNA antigene oligonucleotide GTCTGGACGCGCTGGG directed against MYCN (all peptide nucleic acid (PNA))
H69 % mRNA [1]: 56% | H69 % cell prol. [2]: 66%

SEQ ID NO: 9: PNA antigene oligonucleotide CCCTGCAGTCGGCGGG directed against MYCN (all peptide nucleic acid (PNA))
H69 % mRNA [1]: 50% | H69 % cell prol. [2]: 70%

SEQ ID NO: 10: PNA antigene oligonucleotide CGGCCGCGGGCCGCCA directed against MYCN (PNA backbone, chemistry not fully specified)
H69 % mRNA [1]: 41% | H69 % cell prol. [2]: 79%

SEQ ID NO: 11: PNA antigene oligonucleotide GGGAACTGTGTTGGAG directed against MYCN (PNA backbone, chemistry not fully specified)
H69 % mRNA [1]: 41% | H69 % cell prol. [2]: 78%

SEQ ID NO: 12: PNA antigene oligonucleotide TGTCTGGACGCGCTGG directed against MYCN (all peptide nucleic acid (PNA))
H69 % mRNA [1]: 40% | H69 % cell prol. [2]: 78%
